Experimental data from ChEMBL document CHEMBL1150132, “Five new discodermolide analogues from the marine sponge Discodermia species” (J Nat Prod, 2002).

How the values were obtained:
A549 = test: Cytotoxicity against human A549 cells; format: functional, cell-based
P388 = test: Cytotoxicity against mouse P388 cells after 48 hrs by MTT assay; format: functional, cell-based; settings: P388, 48 h

## C=C/C=C\[C@H](C)[C@H](OC(N)=O)[C@@H](C)[C@H](O)[C@@H](C)C/C(C)=C\[C@H](C)[C@@H](O)[C@@H](C)/C=C\[C@@H](O)C[C@@H]1OC(=O)[C@@H](C)[C@@H](O)[C@H]1C
A549
  IC50: 67 nM
P388
  IC50: 134 nM

## C=C/C=C\[C@H](C)[C@H](OC(N)=O)[C@@H](C)[C@H](O)[C@@H](C)C/C(C)=C\[C@H](C)[C@@H](O)[C@@H](C)/C=C\[C@@H](O)C[C@@H]1OC(=O)[C@H](C)[C@@H](O)[C@H]1C [DISERMOLIDE]
A549
  IC50: 13.5 nM

## C=C/C=C\[C@H](C)[C@H](OC(N)=O)[C@@H](C)[C@H](O)[C@@H](C)C/C(C)=C\[C@H](C)[C@@H](O)[C@@H](C)/C=C\[C@@H](O)C[C@@H]1OC(=O)C[C@@H](O)[C@H]1C
A549
  IC50: 120 nM
P388
  IC50: 172 nM

## C=C/C=C\[C@H](C)[C@H](OC(N)=O)[C@@H](C)[C@H](O)[C@@H](C)C/C(C)=C\[C@H](C)[C@@H](O)[C@@H](C)/C=C\[C@@H](O)C[C@H](O)[C@H](C)[C@H](O)[C@@H](C)C(=O)OC
A549
  IC50: 74 nM
P388
  IC50: 65.8 nM

## C=C/C=C\[C@H](C)[C@H](O)[C@@H](C)[C@H](O)[C@@H](C)C/C(C)=C\[C@H](C)[C@@H](O)[C@@H](C)/C=C\[C@@H](O)C[C@@H]1OC(=O)[C@H](C)[C@@H](O)[C@H]1C
A549
  IC50: 74 nM
P388
  IC50: 128 nM

## C=C/C=C\C(C)C(OC(N)=O)C(C)C(O)C(C)/C=C(\C)C1C(C)C(O)C(C)C1/C=C/C[C@@H]1OC(=O)[C@H](C)[C@@H](O)[C@@H]1C (stereo partly specified)
A549
  IC50: 4490 nM
P388
  IC50: 5040 nM
